Measurements from patent publication US20110217309A1, “BIOLOGICAL MARKERS PREDICTIVE OF ANTI-CANCER RESPONSE TO INSULIN-LIKE GROWTH FACTOR-1 RECEPTOR KINASE INHIBITORS” (priority 2010, published 2011).

How the values were obtained:
Assay in all cases: Cell Titer Glo proliferation assay
SKNAS = format: cell-based; conditions: Homo sapiens, SK-N-AS, read-out: EC50 in culture in vitro
Text: (§1) Cell Lines and Culture. Human cancer cell lines, were obtained from American Type Culture Collection (ATCC, Manassas, Va.), or the following additional indicated sources, and cultured in media as described. Tumor types are also indicated: H295R (adrenocortical carcinoma; ATCC), NCI-[…], NCI-[…], SW1573 (NSCLC; ATCC), […], BxPC3 (pancreatic; ATCC), OVCAR5 (ovarian; NCI), MDAH-2774 (ovarian; ATCC), Igrov1 (ovarian; NCI), GEO (colon; Roswell Park Cancer Institute (RPCC)), HT-29 (colon; ATCC), RKO (colon; ATCC), […], 8226 (myeloma; ATCC), H929 (myeloma; ATCC), U266 (myeloma; ATCC), SKES1 (Ewings sarcoma; ATCC), RDES (Ewings sarcoma; ATCC), RD (rhabdomyosarcoma; ATCC), DU4475 (breast; ATCC), SKNAS (neuroblastoma; ATCC), 2650 (nasal SCC; ATCC), OVCAR4 (ovarian; NCI), A673 (Ewings sarcoma; ATCC), BT474 (breast; ATCC), 1386 (oral SCC; MSKCC, NY), 1186 (SCCHN; MSKCC, NY), Colo205 (colon; ATCC), HCT-15 (colon; ATCC), Fadu (oral SCC; ATCC), SKBR3 (breast; ATCC), 1483 (HNSCC; MSKCC, NY), HSC-2 (HNSCC; RIKEN BioResource Center, Tsukuba, Ibaraki, 305-0074, Japan), SKOV-3 (ovarian; ATCC), OVCAR-3 (ovarian; NCI), OVCAR-8 (ovarian; NCI), CaOV3 (ovarian; ATCC). […] The cells were routinely screened for the presence of mycoplasma (MycoAlert, Cambrex Bio Science, Baltimore, Md.). For growth inhibition assays, cells were plated and allowed to proliferate for 24 hours. […] Cell viability was assayed using the Cell Titer-Glo reagent (Promega Corp., Madison, Wis.). Proliferation Assay. […] The basis of the assay is a luminescent quantitation of ATP present in a cell culture plate well. In essence, the greater the number of viable cells in the well, the greater the level of ATP present. The assay utilizes a substrate that binds ATP to produce a luminescent signal, which can be read on a luminometer. Unless otherwise noted, the manufacturer's instructions were followed exactly. Briefly, on Day 1, cells were plated in 120 μl of 10% serum-containing growth media at a density of 4000 cells/well in a white polystyrene 96 well assay plate. […] After 72 h incubation with the inhibitor, the cells were assayed. Results were calculated as a fraction of the DMSO controlled cells.

BT20 = format: cell-based, human; conditions: BT20 breast cancer, PIK3CA mutant
Text: as §1

LS174T = format: cell-based, human; conditions: LS174T colon cancer, PIK3CA mutant
Text: as §1

MCF7 = format: cell-based, human; conditions: MCF7 breast cancer, PIK3CA mutant
Text: as §1

HCC1954 = format: cell-based, human; conditions: HCC1954 breast cancer, PIK3CA mutant
Text: as §1

T47D = format: cell-based, human; conditions: T47D breast cancer, PIK3CA mutant
Text: as §1

OVK18 = format: cell-based, human; conditions: OVK18, wild type KRAS
Text: as §1

OVCAR4 = format: cell-based, human; conditions: OVCAR4, wild type KRAS
Text: as §1

OVCAR5 cells = format: cell-based, human; conditions: OVCAR5, 72 hours, KRAS mutant
Protocol: (§2) Cell Lines and Culture. Human cancer cell lines, were obtained from American Type Culture Collection (ATCC, Manassas, Va.), or the following additional indicated sources, and cultured in media as described. […] Cells were maintained at 37° C. in an incubator under an atmosphere containing 5% CO2. The cells were routinely screened for the presence of mycoplasma (MycoAlert, Cambrex Bio Science, Baltimore, Md.). For growth inhibition assays, cells were plated and allowed to proliferate for 24 hours. […] Cell viability was assayed using the Cell Titer-Glo reagent (Promega Corp., Madison, Wis.).
(§3) Proliferation Assay. […] The basis of the assay is a luminescent quantitation of ATP present in a cell culture plate well. In essence, the greater the number of viable cells in the well, the greater the level of ATP present. The assay utilizes a substrate that binds ATP to produce a luminescent signal, which can be read on a luminometer. Unless otherwise noted, the manufacturer's instructions were followed exactly. Briefly, on Day 1, cells were plated in 120 μl of 10% serum-containing growth media at a density of 4000 cells/well in a white polystyrene 96 well assay plate. […] After 72 h incubation with the inhibitor, the cells were assayed. Results were calculated as a fraction of the DMSO controlled cells.

MDAH-2774 cells = format: cell-based, human; conditions: MDAH-2774, 72 hours, KRAS mutant
Protocol: as §2, §3

- EC50 (SKNAS): < 1 µM
- EC50, proliferation (OVCAR5 cells): sub-micromolar
SMILES: C[C@]1(O)C[C@@H](c2nc(-c3ccc4ccc(-c5ccccc5)nc4c3)c3c(N)nccn32)C1 [OSI-906, cis-3-[8-amino-1-(2-phenyl-quinolin-7-yl)-imidazo[1,5-a]pyrazin-3-yl]-1-methyl-cyclobutanol]
- sensitivity to OSI-906 (BT20): insensitive (insensitive (EC50>10 μM))
- sensitivity to OSI-906 (LS174T): sensitive (sensitive (EC50<1 μM))
- sensitivity to OSI-906 (MCF7): sensitive (sensitive (EC50<1 μM))
- sensitivity to OSI-906 (HCC1954): insensitive (insensitive (EC50>10 μM))
- sensitivity to OSI-906 (T47D): insensitive (insensitive (EC50>10 μM))
- sensitivity to OSI-906 (OVK18): insensitive (insensitive (EC50>10 μM))
- sensitivity to OSI-906 (OVCAR4): insensitive (insensitive (EC50>10 μM))
- EC50, proliferation (MDAH-2774 cells): sub-micromolar
